According to patent US20230037862A1, “SYNTHETIC AGONISTS OF TLR4 RECEPTOR” (UNIVERSITÀ DEGLO STUDI DI MILANO - BICOCCA, priority 2017, published 2023):
pEC50: −log10 of the molar value.

Experiments:
[1] = target: T1, purified human MD-2 receptor (Homo sapiens, UniProt Q9Y6Y9); assay: Biotinylated LPS displacement from MD-2 hydrophobic pocket (ELISA); format: binding
T1 sequence (Q9Y6Y9 19-160): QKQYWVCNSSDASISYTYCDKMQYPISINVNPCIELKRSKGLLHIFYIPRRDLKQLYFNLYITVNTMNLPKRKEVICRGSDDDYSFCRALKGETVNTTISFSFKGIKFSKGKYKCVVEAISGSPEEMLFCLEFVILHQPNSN
Experimental: The ability to displace LPS from MD-2 hydrophobic pocket was assessed by using an ELISA assay. Molecules FP11 and FP111 were added at increasing concentrations to MD-2 which had previously been incubated with biotinylated LPS.
The ability of the compounds to displace LPS from MD-2 hydrophobic pocket was determined by ELISA.
A microtiter plate was coated overnight at 4° C. with 100 μL/well of 5 μg/mL chicken polyclonal anti-MD-2 antibodies, diluted in 50 mM Na2CO3 buffer, pH 9.6, and blocked with 1% BSA in PBS. After washing, 1 μM MD-2 with biotin-labeled LPS was added and incubated for 2 h. After washing, the compounds were added at different concentrations and incubated for 1.5 h.
After washing, 0.5 μg/mL HRP-conjugated streptavidin (Sigma) in PBS was added, followed by detection at 420 nm after the addition of 100 μL of ABTS (Sigma). Chicken anti-MD-2 polyclonal antibodies were prepared against recombinant MD-2 by GenTel (Madison, Wis., USA),

hTLR4 = target: T2, hTLR4 (Homo sapiens, UniProt O00206+Q9Y6Y9); assay: HEK-Blue hTLR4 SEAP reporter assay (NF-κB/AP-1 activation); format: cell-based; conditions: HEK-Blue hTLR4 cells, 16-18 hours
T2 construct: host or cells: HEK-Blue hTLR4 (HEK cells)
T2 sequence (O00206 24-839): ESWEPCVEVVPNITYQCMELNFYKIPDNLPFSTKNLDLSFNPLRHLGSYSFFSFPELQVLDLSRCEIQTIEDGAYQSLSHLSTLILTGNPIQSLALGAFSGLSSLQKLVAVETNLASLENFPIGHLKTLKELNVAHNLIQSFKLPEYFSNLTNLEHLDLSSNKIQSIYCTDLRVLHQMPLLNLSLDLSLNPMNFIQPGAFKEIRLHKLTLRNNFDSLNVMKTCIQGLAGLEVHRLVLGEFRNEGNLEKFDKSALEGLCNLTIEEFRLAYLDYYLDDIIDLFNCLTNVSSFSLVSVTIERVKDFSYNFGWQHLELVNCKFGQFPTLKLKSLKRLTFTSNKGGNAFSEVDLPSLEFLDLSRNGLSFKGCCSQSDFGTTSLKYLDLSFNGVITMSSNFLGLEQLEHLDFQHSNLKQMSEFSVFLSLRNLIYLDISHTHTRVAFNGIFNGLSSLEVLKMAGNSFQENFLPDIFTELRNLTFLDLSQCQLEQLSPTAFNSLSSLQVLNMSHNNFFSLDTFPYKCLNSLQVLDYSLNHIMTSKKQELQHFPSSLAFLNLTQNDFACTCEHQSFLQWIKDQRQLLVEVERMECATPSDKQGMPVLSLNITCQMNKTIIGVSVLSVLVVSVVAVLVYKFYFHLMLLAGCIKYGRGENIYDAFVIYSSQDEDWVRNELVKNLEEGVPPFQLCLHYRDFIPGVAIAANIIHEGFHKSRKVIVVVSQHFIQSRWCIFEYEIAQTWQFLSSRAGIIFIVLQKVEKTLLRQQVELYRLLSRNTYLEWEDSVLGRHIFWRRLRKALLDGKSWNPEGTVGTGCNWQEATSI
T2 sequence (Q9Y6Y9 17-160 limits assumed): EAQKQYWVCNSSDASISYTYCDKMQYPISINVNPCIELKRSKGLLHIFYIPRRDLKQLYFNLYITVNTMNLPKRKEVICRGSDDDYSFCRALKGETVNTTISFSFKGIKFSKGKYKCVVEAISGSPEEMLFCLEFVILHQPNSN
Experimental: HEK-Blue™ hTLR4 (FIG. 1A) and HEK-Blue™ Null2 (FIG. 1B) cells were treated with the indicated concentrations of compounds FP11, FP111, and with LPS (100 ng/mL) and incubated for 16-18 hours. Results were normalized to stimulation with LPS alone, and are expressed as mean of percentage ±ES. of at least three independent experiments.
HEK-Blue™ hTLR4 cells were treated with increasing concentrations of compound FP11 and of LPS and incubated for 16-18 hours. Results were normalized to maximum activation of the reporter produced by LPS (FIG. 2A) and to maximum activation of the reporter produced by the compound itself (FIG. 2B). Data were fitted to a sigmoidal four-parameter logistic equation in order to determine IC50 values, and expressed as mean of percentage ±ES of at least three independent experiments.
HEK-Blue™ hTLR4 cells are HEK cells transfected so as to stably express human receptors hTLR4, hMD-2, and hCD14 for endotoxin recognition. In addition, said cells have a reporter gene encoding for a secreted alkaline phosphatase (SEAP) μlaced under the control of specific transcription factors (NF-κB and AP-1) activated by the TLR4 signaling pathway. Therefore, the presence of LPS or of an agonist of TLR4 causes receptor dimerization, activation of the signaling pathway and of transcription factors NF-κB and AP-1, and finally SEAP production and secretion into the culture medium. SEAP levels can be subsequently quantitated by incubating the medium with compound p-nitrophenylphosphate (pNPP) and monitoring with a spectrophotometer the formation of p-nitrophenol chromogenic product at 405 nm.
HEK-Blue™ hTLR4 cells (InvivoGen) were cultured according to manufacturer's instruction. […]
Cells were detached using a cell scraper, counted and seeded in a 96-well multiwell plate at a density of 4×10^4 cells per well. […]
The wells' optical density was determined using a microplate reader set at 405 nm.
The results were normalized with positive control (LPS alone) and expressed as a mean of percentage ±SEM of at least three independent experiments.

- displacement of biotinylated LPS from MD-2 ([1]; 160 μM): 55%
- concentrations at which activation of NF-κB and AP-1 is induced (hTLR4; SEAP reporter): > 5 µM
- pEC50 (hTLR4; dose-response curve): 4.91
SMILES: CCCCCCCCCCCCCC(=O)NC1C(OC(=O)CCCCCCCCCCCCC)[C@H](OC(=O)CCCCCCCCCCCCC)C(CO)O[C@H]1OP(=O)(O)O (stereo partly drawn) [FP11, 1-O-Phosphoryl-2-deoxy-4-O-tetradecanoyl 3-O-tetradecanoyl-2-tetradecanoylamino-α-D-glucopiranoside]
- ability to displace biotinylated LPS from MD-2 hydrophobic pocket ([1]; increasing concentrations, highest 160 μM): displaces biotinylated LPS from MD-2 hydrophobic pocket in a dose-dependent manner
